Source: patent publication US6214821A, “Methods and composition for the inhibition of cancer cells” (Washington State University Research Foundation, priority 1999, dated 2001)
Like-named read-outs stand apart in the source and are kept apart here.

Key:
GI 101A cells = test: cells; format: cell-based, human
Excerpt: (§1) . Cell lines and Culture.
(§2) Drugs and Chemical Reagents. […] . […] All other chemicals were reagent grade.
(§3) Drug Treatment and Survival Curves.
(§4) Pharmacol. 28:370-376 (1991). […] .
(§5) Drug Combinations and Data Analysis. […] . Pharmacol. (in press, 1997). […] Enzyme Regul. […] Enzyme Regul. 22:27-55 (1984).
(§6) . […] Enzyme Regul. 22:27-55 (1984).

MDA-231 cells = test: cells; format: cell-based, human
Excerpt: as §1, §2, §3, §4, §5, §6

HMEC/E6 (p53-) = test: Crystal violet staining growth inhibition assay, median effect analysis; format: cell-based; conditions: Homo sapiens, 24 hr treatment
Excerpt: Cytotoxicity and Bromodeoxyuridine incorporation assays. […] Enzyme Regul.

[1] = UCN-01 pharmacokinetics in rats, effect of human AGP; format: in vivo, male Wistar rats; conditions: for half-life / clearance / Vd: 10 mg/kg; for half-life: range over the two groups (without and with 10 mg human AGP); for clearance: read-out: total body clearance (converted); for Vd: read-out: volume of distribution during the elimination phase
Excerpt: Many basic drugs tend to bind in variable degrees to AGP (Knowlton, K. et al., "Bcl-2 slows in vitro breast cancer growth despite its antiapoptotic effect," J. Surg. Res. 76:22-26 (1998)). […] Thus monitoring changes in the pharmacokinetic drug concentrations in these pathological conditions is extremely important, since dosage adjustment would be considered. For our drug combination, this binding is of a crucial consequence since the attainable plasma and tumor concentrations may be questionable and plasma protein displacement interaction may occur and can lead to undesirable side effects. Thus the role of human α1 -acid glycoprotein (AGP) binding on UCN-01 disposition was determined. In this example, two groups of rats were prepared by cannulating the femoral vein and artery. The first group (n=6) received UCN-01 (10 mg/kg i.v.) by slow infusion over 1 min., while the second group (n=5) received UCN-01+10 mg human α1 -acid glycoprotein. Plasma samples were obtained over time (0-700 min), and were analyzed for UCN-01 by HPLC system (Shimazdu LC), detecting peaks using fluorescence detector (excitation=310 nm, emission=410).

[2] = Tissue distribution of UCN-01 in rats, effect of human AGP; format: in vivo, male Wistar rats; conditions: rat, iv, 10 mg/kg
Description: The role of human AGP binding on the tissue distribution of UCN-01. In this study, two groups of rats (n=3) were infused with bolus injection of either UCN-01 (10 mg/kg) or UCN-01+ human AGP (10 mg/kg +10 mg). On hour following drug administration, plasma samples as well as organ tissues (brain, muscle, kidneys, lungs, liver, heart and spleen) were collected. Tissues were digested and homogenized, protein was precipitated with cold ethanol/1% ascorbic acid, and the supernatant was extracted with chloroform. The organic phase was then dried under nitrogen, reconstituted in acetonitrile and analyzed by HPLC as mentioned above.

[3] = system: normal bovine venular endothelial cells (BVEC)
Description: Cell lines and Culture. […] Normal bovine venular endothelial cells (BVEC) were maintained in DMEM media (Gibco) supplemented with 1 mM sodium pyrovate (Gibco), and 20% bovine calf serum (Hyclone). Cell viability was determined using the trypan blue exclusion test. To ensure an exponential growth, cells were plated in fresh medium 24 h before each treatment.
Drug Treatment and Survival Curves. Cytotoxicity studies were initiated by plating 2×10^4 cells obtained from exponentially growing cultures in 24-well tissue culture plates (Coming-Costar, Cambridge Mass.) in the appropriate medium. Following 24 h incubation at 37° C., drugs were added to quadruplicate wells and incubated for 24 h, the wells were washed twice with prewarmed phosphate-buffered saline (PBS) and then incubated with drug-free medium for 2-3 doubling times.

[4] = 72- or 3-h infusion, NCI Phase I; cited from earlier work
[5] = system: α1 -acid glycoprotein (AGP); conditions: cited from earlier work
[6] = Death of animals injected with UCN-01; conditions: i.m., doses higher than 5 mg/kg
HMEC (p53+) = test: Crystal violet staining growth inhibition assay, median effect analysis; conditions: Homo sapiens, 24 h, read-out: IC50 HMEC (p53+)
MDA-231 (mutant p53) = test: as above; conditions: Homo sapiens, MDA-MB-231, 24 h, read-out: IC50 MDA-231 (p53-)
[7] = rat, plasma, iv, UCN-01 10 mg/kg i.v. + 10 mg human AGP
[8] = rat, plasma, iv, UCN-01 10 mg/kg i.v. alone

Compound: CN[C@@H]1C[C@H]2O[C@@](C)([C@@H]1OC)n1c3ccccc3c3c4c(c5c6ccccc6n2c5c31)C(=O)N[C@@H]4O [UCN-01, 7-hydroxystaurosporine]
- enhancement of CPT cytotoxicity (GI 101A cells): about 30 fold
- enhancement of CPT cytotoxicity (MDA-231 cells): ~40 fold
- IC50 (HMEC/E6 (p53-)): 1.4 nM
- duration of peak plasma concentration >100 nM ([1]; 10 mg/kg i.v., presence of human AGP): up to 300 min
- half-life ([1]; rat, plasma, iv, 10 mg/kg i.v., read-out: t1/2α): 0.183 to 0.85 h
- half-life ([1]; rat, plasma, iv, 10 mg/kg i.v., read-out: t1/2β): 6.65 to 6.95 h
- clearance [1, 7]: 1.5 mL/min
- Vd [1, 7]: 1.7 L/kg
- clearance [1, 8]: 4.33 mL/min
- Vd [1, 8]: 6.8 L/kg
- Cmax ([1]; rat, plasma, iv, 10 mg/kg i.v., presence of human AGP, read-out: peak plasma concentration): > 100 nM
- Kp at 1 h ([2]; all tissues, UCN-01, 1 h, read-out: tissue:plasma ratios, all tissues): 10 to 1190
- concentration at 1 h ([2]; brain, brain, UCN-01 10 mg/kg alone, 1 h, read-out: tissue concentration): 2450 ± 495 ng/g
- Kp at 1 h ([2]; brain, brain, UCN-01 + human AGP, 1 h, read-out: Tissue/Plasma ratio): 0.6 ± 0.33
- concentration at 1 h ([2]; brain, brain, UCN-01 + human AGP, 1 h, read-out: tissue concentration): 1720 ± 78.4 ng/g
- Kp at 1 h ([2]; brain, brain, UCN-01 alone, 1 h, read-out: Tissue/Plasma ratio): 10.5 ± 1.9
- concentration at 1 h ([2]; heart, heart, UCN-01 10 mg/kg alone, 1 h, read-out: tissue concentration): 19900 ± 9940 ng/g
- Kp at 1 h ([2]; heart, heart, UCN-01 + human AGP, 1 h, read-out: Tissue/Plasma ratio): 3.5 ± 1.7
- concentration at 1 h ([2]; heart, heart, UCN-01 + human AGP, 1 h, read-out: tissue concentration): 10100 ± 4900 ng/g
- Kp at 1 h ([2]; heart, heart, UCN-01 alone, 1 h, read-out: Tissue/Plasma ratio): 86.8 ± 41.7
- concentration at 1 h ([2]; kidney, kidney, UCN-01 10 mg/kg alone, 1 h, read-out: tissue concentration): 73200 ± 3050 ng/g
- Kp at 1 h ([2]; kidney, kidney, UCN-01 + human AGP, 1 h, read-out: Tissue/Plasma ratio): 14 ± 5.6
- concentration at 1 h ([2]; kidney, kidney, UCN-01 + human AGP, 1 h, read-out: tissue concentration): 39400 ± 8510 ng/g
- Kp at 1 h ([2]; kidney, kidney, UCN-01 alone, 1 h, read-out: Tissue/Plasma ratio): 298 ± 40
- concentration at 1 h ([2]; liver, liver, UCN-01 10 mg/kg alone, 1 h, read-out: tissue concentration): 42900 ± 3210 ng/g
- Kp at 1 h ([2]; liver, liver, UCN-01 + human AGP, 1 h, read-out: Tissue/Plasma ratio): 11.3 ± 1.34
- concentration at 1 h ([2]; liver, liver, UCN-01 + human AGP, 1 h, read-out: tissue concentration): 30100 ± 2530 ng/g
- Kp at 1 h ([2]; liver, liver, UCN-01 alone, 1 h, read-out: Tissue/Plasma ratio): 189 ± 131
- concentration at 1 h ([2]; lung, lung, UCN-01 10 mg/kg alone, 1 h, read-out: tissue concentration): 279000 ± 19600 ng/g
- Kp at 1 h ([2]; lung, lung, UCN-01 + human AGP, 1 h, read-out: Tissue/Plasma ratio): 53.6
- concentration at 1 h ([2]; lung, lung, UCN-01 + human AGP, 1 h, read-out: tissue concentration): 141000 ± 12000 ng/g
- Kp at 1 h ([2]; lung, lung, UCN-01 alone, 1 h, read-out: Tissue/Plasma ratio): 1190 ± 775
- concentration at 1 h ([2]; muscle, muscle, UCN-01 10 mg/kg alone, 1 h, read-out: tissue concentration): 11900 ± 783 ng/g
- Kp at 1 h ([2]; muscle, muscle, UCN-01 + human AGP, 1 h, read-out: Tissue/Plasma ratio): 2.27 ± 1.11
- concentration at 1 h ([2]; muscle, muscle, UCN-01 + human AGP, 1 h, read-out: tissue concentration): 6590 ± 3060 ng/g
- Kp at 1 h ([2]; muscle, muscle, UCN-01 alone, 1 h, read-out: Tissue/Plasma ratio): 60 ± 5.48
- concentration at 1 h ([2]; plasma, plasma, UCN-01 10 mg/kg + human AGP 10 mg, 1 h, mean ± SD, n=3, read-out: plasma concentration): 2960 ± 250 ng/mL
- concentration at 1 h ([2]; plasma, plasma, UCN-01 10 mg/kg alone, 1 h, mean ± SD, n=3, read-out: plasma concentration): 240 ± 35 ng/mL
- concentration at 1 h ([2]; spleen, spleen, UCN-01 10 mg/kg alone, 1 h, read-out: tissue concentration): 74900 ± 5170 ng/g
- Kp at 1 h ([2]; spleen, spleen, UCN-01 + human AGP, 1 h, read-out: Tissue/Plasma ratio): 19.6 ± 14.7
- concentration at 1 h ([2]; spleen, spleen, UCN-01 + human AGP, 1 h, read-out: tissue concentration): 53300 ± 3120 ng/g
- Kp at 1 h ([2]; spleen, spleen, UCN-01 alone, 1 h, read-out: Tissue/Plasma ratio): 326 ± 208
- enhancement of CPT-induced cytotoxicity [3]: no enhancement of CPT-induced cytotoxicity
- distribution volume [4]: small distribution volume
- half-life [4]: long half-life
- plasma concentrations [4]: high plasma concentrations
- systemic clearance [4]: Extremely low systemic clearance
- binding to α1-acid glycoprotein [5]: high affinity binding
- death of animals [6]: Death of animals injected with doses higher than 5 mg/kg was observed
- IC50 (HMEC (p53+)): 0.07 nM
- IC50 (MDA-231 (mutant p53)): 49.6 nM
